For 32 compounds, EC50 results are on record in patent publication US8633184B2, “Benzoazepin-oxy-acetic acid derivatives as PPAR-delta agonists used for the increase of HDL-C, lower LDL-C and lower cholesterol” (Janssen Pharmaceutica N.V., priority 2006, dated 2014).

Values joined by “and” are separate entries in the source; they are usually repeats but may differ in a detail not shown here. Equal values may be shown once. A value given as a limit tells only on which side of the number the result lay.

What all share (type): cell-based
Common to all, as to conditions: 18-24 hrs

One test deals with T1, PPARδ (Homo sapiens, UniProt Q03181).
T1 construct: expressed in transfected cells; host or cells: HEK293
T1 sequence (Q03181 211-439 limits assumed): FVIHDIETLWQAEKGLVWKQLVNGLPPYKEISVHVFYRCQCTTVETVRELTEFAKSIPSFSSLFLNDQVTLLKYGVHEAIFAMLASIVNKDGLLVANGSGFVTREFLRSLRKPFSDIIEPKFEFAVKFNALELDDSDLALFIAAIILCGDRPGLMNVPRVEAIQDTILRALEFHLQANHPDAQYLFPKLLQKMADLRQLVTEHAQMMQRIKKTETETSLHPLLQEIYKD
Briefly: Transfection assay, GAL4-PPARδ LBD luciferase reporter in HEK293 cells. On the procedure:
(§1) HEK293 cells were grown in DMEM/F12 medium supplemented with 10% FBS and glutamine (Invitrogen) and incubated in a 5% CO2 incubator at 37° C. The cells were co-transfected using DMRIE-C reagent (Invitrogen) in serum free medium (Opti-MEM, Invitrogen) with two mammalian expression plasmids, one containing the DNA sequence coding for the ligand binding domains of either PPARα, γ or δ fused to the yeast GAL4 DNA binding domain and the other containing the promoter sequence of the yeast GAL4 (UAS) fused to the firefly luciferase cDNA reporter. The next day, the medium was changed to DMEM/F12 medium supplemented with 5% charcoal treated serum (Hyclone) and glutamine. After 6 hrs the cells were trypsinized and seeded at a density of 50,000 cells/well into 96 well plates and incubated overnight as above. The cells were then treated with test compounds or vehicle and incubated for 18-24 hrs as above. Luciferase reporter activity was measured using the Steady-Glo Luciferase Assay Kit from Promega. DMRIE-C Reagent was purchased from GIBCO Cat. No. 10459-014. OPTI-MEM I Reduced Serum Medium was purchased from GIBCO (Cat. No. 31985). Steady-Glo Luciferase Assay Kit was purchased from Promega (Part #E254B).
(§2) A variety of example compounds have been made and tested, with a range of in vitro results. Below, in Table 2, are representative compounds and data; in some cases, where multiple EC50's are shown, multiple measurements were taken. Naturally, different compounds in Formula (I) may have not activities identical to any one compound below.

In the next test the target is T2, PPARγ (Homo sapiens, UniProt P37231).
T2 construct: expressed in transfected cells; host or cells: HEK293
T2 sequence (P37231 238-503 limits assumed): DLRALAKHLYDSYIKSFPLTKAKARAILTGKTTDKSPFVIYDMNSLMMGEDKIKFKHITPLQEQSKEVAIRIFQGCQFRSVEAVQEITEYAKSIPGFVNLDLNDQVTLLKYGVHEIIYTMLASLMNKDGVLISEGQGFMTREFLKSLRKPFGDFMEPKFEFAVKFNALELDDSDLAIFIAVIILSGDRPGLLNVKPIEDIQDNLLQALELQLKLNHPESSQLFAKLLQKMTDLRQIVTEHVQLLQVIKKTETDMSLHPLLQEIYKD
In words: Transfection assay, GAL4-PPARγ LBD luciferase reporter in HEK293 cells. On the procedure:
as §1, §2
A general note: A reporter such as luciferase makes a cellular process visible.

For another test, the target named is T3, PPARα (Homo sapiens, UniProt Q07869).
T3 construct: expressed in transfected cells; host or cells: HEK293
T3 sequence (Q07869 239-466 limits assumed): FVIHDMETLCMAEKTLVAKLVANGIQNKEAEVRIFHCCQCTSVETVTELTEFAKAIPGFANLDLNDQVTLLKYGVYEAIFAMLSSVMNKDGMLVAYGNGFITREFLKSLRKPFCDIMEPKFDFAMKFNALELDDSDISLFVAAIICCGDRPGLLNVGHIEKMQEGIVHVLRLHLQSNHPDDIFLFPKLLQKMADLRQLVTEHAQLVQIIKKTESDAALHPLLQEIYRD
In words: Transfection assay, GAL4-PPARα LBD luciferase reporter in HEK293 cells. On the procedure: as §1, §2

Take `CC(c1ccc(-c2ccc(C(F)(F)F)cc2)s1)N1CCc2ccc(OCC(=O)O)cc2CC1` (racemic) [compound 27]: the EC50 at PPARδ is < 3 nM and 1.4 nM; at PPARγ it was more than 3000 nM; at PPARα, more than 3000 nM.
Regarding `CC(c1ccc(-c2ccc(C(F)(F)F)cc2)s1)N1CCc2ccc(OCC(=O)O)cc2CC1` (single isomer, unassigned) [27a], the EC50 was 0.92 nM at PPARδ, more than 1000 nM at PPARγ and more than 3000 nM on PPARα.
Regarding `CC(c1ccc(-c2ccc(C(F)(F)F)cc2)s1)N1CCc2ccc(OCC(=O)O)cc2CC1` (single isomer, unassigned) [27b], the EC50 is 12.6 nM and 13.9 nM at PPARδ; more than 3000 nM at PPARγ; more than 3000 nM at PPARα.
Consider `CC(c1ccc(-c2ccc(C(F)(F)F)cc2)o1)N1CCc2ccc(OCC(=O)O)cc2CC1` (single isomer, unassigned) [28a], for which the EC50 at PPARδ is 1.8 nM; on PPARγ, more than 3000 nM; on PPARα, more than 3000 nM.
For `CC(c1ccc(-c2ccc(C(F)(F)F)cc2)o1)N1CCc2ccc(OCC(=O)O)cc2CC1` (single isomer, unassigned) [28b], the EC50 was 5.4 nM and 9.8 nM on PPARδ; more than 3000 nM on PPARγ; more than 3000 nM on PPARα.
Turning to `O=C(O)COc1ccc2c(c1)CCN(Cc1cc(-c3ccc(C(F)(F)F)cc3)ns1)CC2` [compound 1], the EC50 is 34.1 nM and 66.6 nM at PPARδ; more than 3000 nM on PPARγ; 546 nM and 758 nM on PPARα.
Regarding `CC(C)(Oc1ccc2c(c1)CCN(Cc1cc(-c3ccc(C(F)(F)F)cc3)ns1)CC2)C(=O)O` [compound 2], the EC50 at PPARδ is 162 nM; on PPARγ, more than 3000 nM; at PPARα it was more than 3000 nM.
As for `O=C(O)COc1ccc2c(c1)CCN(Cc1nc(-c3ccc(C(F)(F)F)cc3)ns1)CC2` [compound 3], the results for the EC50 on PPARδ, at PPARγ and on PPARα were 143 nM, more than 3000 nM and more than 3000 nM, respectively.
With `CC(C)(Oc1ccc2c(c1)CCN(Cc1nc(-c3ccc(C(F)(F)F)cc3)ns1)CC2)C(=O)O` [compound 4], the concentration for a half-maximal effect (EC50) on PPARδ was 95.2 nM; on PPARγ, more than 3000 nM; at PPARα, more than 3000 nM.
`Cc1nc(-c2ccc(C(F)(F)F)cc2)sc1CN1CCc2ccc(OCC(=O)O)cc2CC1` [compound 5]: the EC50 on PPARδ is 51.6 nM; at PPARγ it was more than 3000 nM; at PPARα it was more than 3000 nM.
For `Cc1nc(-c2ccc(C(F)(F)F)cc2)sc1CN1CCc2ccc(OC(C)(C)C(=O)O)cc2CC1` [compound 6], the EC50 on PPARδ is 243 nM; on PPARγ it was more than 3000 nM; on PPARα it was more than 1000 nM.
As for `CC(C)(Oc1ccc2c(c1)CCN(Cc1ccc(-c3ccc(C(F)(F)F)cc3)s1)CC2)C(=O)O` [compound 8], the concentration giving a half-maximal response (EC50) was 85.9 nM and 123 nM on PPARδ; more than 3000 nM at PPARγ; more than 1000 nM on PPARα.
Turning to `O=C(O)COc1ccc2c(c1)CCN(Cc1ccc(-c3ccc(C(F)(F)F)cc3)o1)CC2` [compound 9], the EC50 at PPARδ was 74.2 nM and 70.9 nM; at PPARγ, more than 3000 nM; on PPARα, more than 3000 nM.
Regarding `CC(C)(Oc1ccc2c(c1)CCN(Cc1ccc(-c3ccc(C(F)(F)F)cc3)o1)CC2)C(=O)O` [compound 10], the concentration giving a half-maximal response (EC50) on PPARδ was 53 nM and 87.7 nM; at PPARγ, more than 3000 nM; on PPARα it was more than 3000 nM.
On to `O=C(O)COc1ccc2c(c1)CCN(Cc1cc(-c3ccc(C(F)(F)F)cc3)on1)CC2` [compound 11], for which the EC50 is 136 nM at PPARδ, more than 3000 nM on PPARγ and more than 1000 nM on PPARα.
As for `CC(C)(Oc1ccc2c(c1)CCN(Cc1cc(-c3ccc(C(F)(F)F)cc3)on1)CC2)C(=O)O` [compound 12], the EC50 at PPARδ was 122 nM; on PPARγ, more than 3000 nM; on PPARα, more than 1000 nM.
Regarding `Cc1cc(-c2ccc(C(F)(F)F)cc2)sc1CN1CCc2ccc(OCC(=O)O)cc2CC1` [compound 13], the EC50 on PPARδ was 174 nM and 193 nM; on PPARγ, more than 3000 nM; at PPARα it was more than 3000 nM.
In the case of `Cc1cc(-c2ccc(C(F)(F)F)cc2)sc1CN1CCc2ccc(OC(C)(C)C(=O)O)cc2CC1` [compound 14], the figures for the EC50 at PPARδ, on PPARγ and at PPARα were 398 nM, more than 3000 nM and more than 3000 nM, respectively.
In the case of `Cc1c(-c2ccc(C(F)(F)F)cc2)csc1CN1CCc2ccc(OCC(=O)O)cc2CC1` [compound 15], the EC50 at PPARδ is 104 nM; at PPARγ it was more than 3000 nM; on PPARα, more than 3000 nM.
In the case of `Cc1c(-c2ccc(C(F)(F)F)cc2)csc1CN1CCc2ccc(OC(C)(C)C(=O)O)cc2CC1` [compound 16], the half-maximal effective concentration (EC50) at PPARδ was 375 nM; at PPARγ, more than 3000 nM; on PPARα, more than 3000 nM.
Take `O=C(O)COc1ccc2c(c1)CCN(Cc1csc(-c3ccc(C(F)(F)F)cc3)n1)CC2` [compound 17]: the EC50 at PPARδ is 439 nM; at PPARγ, more than 3000 nM; at PPARα, more than 3000 nM.
For the compound `Cc1nc(-c2ccc(C(F)(F)F)cc2)oc1CN1CCc2ccc(OCC(=O)O)cc2CC1` [compound 18], the EC50 at PPARδ was 174 nM; at PPARγ, more than 3000 nM; at PPARα, more than 3000 nM.
With `Cc1nc(-c2ccc(C(F)(F)F)cc2)oc1CN1CCc2ccc(OC(C)(C)C(=O)O)cc2CC1` [compound 19], the concentration for a half-maximal effect (EC50) on PPARδ was 231 nM; at PPARγ it was more than 3000 nM; at PPARα, more than 3000 nM.
On to `O=C(O)COc1ccc2c(c1)CCN(Cc1cnn(-c3ccc(C(F)(F)F)cc3)c1)CC2` [compound 20], for which the results for the EC50 on PPARδ, on PPARγ and on PPARα were more than 1000 nM, more than 3000 nM and more than 3000 nM, respectively.
Take `CC(C)(Oc1ccc2c(c1)CCN(Cc1cnn(-c3ccc(C(F)(F)F)cc3)c1)CC2)C(=O)O` [compound 21]: the concentration giving a half-maximal response (EC50) at PPARδ was 422 nM; at PPARγ, more than 3000 nM; at PPARα, more than 3000 nM.
As for `O=C(O)COc1ccc2c(c1)CCN(CCc1ccc(-c3ccc(C(F)(F)F)cc3)s1)CC2` [compound 22], the EC50 at PPARδ, on PPARγ and at PPARα was more than 3000 nM throughout.
With `O=C(O)COc1ccc2c(c1)CCN(Cc1cc(-c3ccc(C(F)(F)F)cc3)cs1)CC2` [compound 23], the EC50 is 109 nM and 70.2 nM on PPARδ; more than 3000 nM on PPARγ; more than 3000 nM at PPARα.
For `O=C(O)COc1ccc2c(c1)CCN(Cc1cnc(-c3ccc(C(F)(F)F)cc3)s1)CC2` [compound 24], the 50% effective concentration (EC50) is 27.1 nM and 22 nM at PPARδ; more than 3000 nM at PPARγ; more than 1000 nM at PPARα.
With `CC1CN(Cc2ccc(-c3ccc(C(F)(F)F)cc3)s2)CCc2ccc(OCC(=O)O)cc21` (stereo not drawn) [compound 25], the EC50 at PPARδ is 11 nM and 10.8 nM; at PPARγ, more than 3000 nM; on PPARα, more than 1000 nM.
For the compound `CC1CN(Cc2ccc(-c3ccc(C(F)(F)F)cc3)o2)CCc2ccc(OCC(=O)O)cc21` (stereo not drawn) [compound 26], the EC50 on PPARδ is 15.8 nM; on PPARγ, more than 3000 nM; on PPARα, more than 3000 nM.
For the compound `CC(c1ccc(-c2ccc(C(F)(F)F)cc2)o1)N1CCc2ccc(OCC(=O)O)cc2CC1` (stereo not drawn) [compound 28], the figures for the EC50 at PPARδ, on PPARγ and on PPARα were less than 3 nM, more than 3000 nM and more than 3000 nM, respectively.
Take `CC(c1cnc(-c2ccc(C(F)(F)F)cc2)s1)N1CCc2ccc(OCC(=O)O)cc2CC1` (stereo not drawn) [compound 29]: the EC50 at PPARδ was less than 3 nM; at PPARγ, 622 nM; at PPARα, more than 3000 nM.

For orientation: EC50 means the concentration at which the effect is half-maximal.
